What was measured:
Test in all cases: KINOMEscan competition binding
Conditions in all cases: compound 10.0 µM
STK32B (human) = STK32B (human) (UniProt Q9NY57)
DDR2 (human) = DDR2 (human) (UniProt Q16832)
RPS6KA4 KD1 (human) = RPS6KA4 KD1 (human) (UniProt O75676)
NEK5 (human) = NEK5 (human) (UniProt Q6P3R8)
TXK (human) = TXK (human) (UniProt P42681)
CDK3 (human) = CDK3 (human) (UniProt Q00526)
[1] = system: MET (human), P08581 [Y1235D]
MARK1 (human) = MARK1 (human) (UniProt Q9P0L2)
MAP3K1 (human) = MAP3K1 (human) (UniProt Q13233)
BMPR2 (human) = BMPR2 (human) (UniProt Q13873)
MKNK2 (human) = MKNK2 (human) (UniProt Q9HBH9)
ABL1 (human) = ABL1 (human) (UniProt P00519)
PLK3 (human) = PLK3 (human) (UniProt Q9H4B4)
MAP3K4 (human) = MAP3K4 (human) (UniProt Q9Y6R4)
BLK (human) = BLK (human) (UniProt P51451)
PKN1 (human) = PKN1 (human) (UniProt Q16512)
EPHA3 (human) = EPHA3 (human) (UniProt P29320)
MINK1 (human) = MINK1 (human) (UniProt Q8N4C8)
PLK1 (human) = PLK1 (human) (UniProt P53350)
[2] = system: ABL1 (human), P00519 [T315I]
TGFBR1 (human) = TGFBR1 (human) (UniProt P36897)
STK24 (human) = STK24 (human) (UniProt Q9Y6E0)
PDPK1 (human) = PDPK1 (human) (UniProt O15530)
CSF1R (human) = CSF1R (human) (UniProt P07333)
MST1R (human) = MST1R (human) (UniProt Q04912)
DAPK1 (human) = DAPK1 (human) (UniProt P53355)
[3] = system: PIK3CA (human), P42336 [H1047L]
PRKCH (human) = PRKCH (human) (UniProt P24723)
LCK (human) = LCK (human) (UniProt P06239)
[4] = system: RET (human), P07949 [V804L]
YSK4 (human) = YSK4 (human) (UniProt Q56UN5)
TTK (human) = TTK (human) (UniProt P33981)
[5] = system: FLT3 (human), P36888 [D835Y]
BRSK2 (human) = BRSK2 (human) (UniProt Q8IWQ3)
LATS2 (human) = LATS2 (human) (UniProt Q9NRM7)
ACVR2B (human) = ACVR2B (human) (UniProt Q13705)
SGK110 (human) = SGK110 (human) (UniProt P0C264)
CDK18 (human) = CDK18 (human) (UniProt Q07002)
BMP2K (human) = BMP2K (human) (UniProt Q9NSY1)
RIPK4 (human) = RIPK4 (human) (UniProt P57078)
TNIK (human) = TNIK (human) (UniProt Q9UKE5)
MAP4K4 (human) = MAP4K4 (human) (UniProt O95819)

TTK (human), sequence (P33981 whole entry, looked up): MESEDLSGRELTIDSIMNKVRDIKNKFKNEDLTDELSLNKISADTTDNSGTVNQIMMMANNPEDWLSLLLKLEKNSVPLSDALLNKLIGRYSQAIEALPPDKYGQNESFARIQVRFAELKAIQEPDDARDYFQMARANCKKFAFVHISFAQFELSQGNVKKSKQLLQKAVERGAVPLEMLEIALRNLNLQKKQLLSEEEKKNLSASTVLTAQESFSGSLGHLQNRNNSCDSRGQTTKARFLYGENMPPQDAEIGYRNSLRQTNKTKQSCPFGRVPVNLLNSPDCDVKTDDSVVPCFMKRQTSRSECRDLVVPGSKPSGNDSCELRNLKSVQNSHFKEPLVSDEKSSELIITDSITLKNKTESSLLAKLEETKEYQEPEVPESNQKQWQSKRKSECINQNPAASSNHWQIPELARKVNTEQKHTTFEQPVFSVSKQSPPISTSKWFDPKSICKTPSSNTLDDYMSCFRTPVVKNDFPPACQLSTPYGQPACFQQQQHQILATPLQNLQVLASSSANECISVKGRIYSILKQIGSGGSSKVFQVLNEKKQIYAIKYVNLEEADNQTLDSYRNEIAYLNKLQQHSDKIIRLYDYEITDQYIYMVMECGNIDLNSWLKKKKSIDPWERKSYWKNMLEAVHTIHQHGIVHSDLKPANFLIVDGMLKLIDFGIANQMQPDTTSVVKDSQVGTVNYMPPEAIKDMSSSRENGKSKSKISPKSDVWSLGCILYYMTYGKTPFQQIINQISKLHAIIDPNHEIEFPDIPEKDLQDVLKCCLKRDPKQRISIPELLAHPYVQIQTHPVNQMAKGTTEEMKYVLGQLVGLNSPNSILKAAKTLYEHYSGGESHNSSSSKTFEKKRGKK
MKNK2 (human), sequence (Q9HBH9 whole entry, looked up): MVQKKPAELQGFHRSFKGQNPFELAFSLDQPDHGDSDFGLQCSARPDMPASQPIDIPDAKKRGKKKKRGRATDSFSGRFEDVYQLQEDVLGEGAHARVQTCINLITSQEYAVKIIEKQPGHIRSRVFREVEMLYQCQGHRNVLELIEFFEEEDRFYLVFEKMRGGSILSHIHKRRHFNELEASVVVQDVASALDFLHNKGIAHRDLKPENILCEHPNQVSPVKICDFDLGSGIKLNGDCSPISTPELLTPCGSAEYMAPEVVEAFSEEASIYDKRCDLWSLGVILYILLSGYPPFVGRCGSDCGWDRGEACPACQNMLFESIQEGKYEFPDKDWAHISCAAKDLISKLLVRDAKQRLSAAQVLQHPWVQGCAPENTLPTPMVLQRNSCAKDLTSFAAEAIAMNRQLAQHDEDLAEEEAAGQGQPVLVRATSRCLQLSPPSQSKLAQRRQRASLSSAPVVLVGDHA
TNIK (human), sequence (Q9UKE5 whole entry, looked up): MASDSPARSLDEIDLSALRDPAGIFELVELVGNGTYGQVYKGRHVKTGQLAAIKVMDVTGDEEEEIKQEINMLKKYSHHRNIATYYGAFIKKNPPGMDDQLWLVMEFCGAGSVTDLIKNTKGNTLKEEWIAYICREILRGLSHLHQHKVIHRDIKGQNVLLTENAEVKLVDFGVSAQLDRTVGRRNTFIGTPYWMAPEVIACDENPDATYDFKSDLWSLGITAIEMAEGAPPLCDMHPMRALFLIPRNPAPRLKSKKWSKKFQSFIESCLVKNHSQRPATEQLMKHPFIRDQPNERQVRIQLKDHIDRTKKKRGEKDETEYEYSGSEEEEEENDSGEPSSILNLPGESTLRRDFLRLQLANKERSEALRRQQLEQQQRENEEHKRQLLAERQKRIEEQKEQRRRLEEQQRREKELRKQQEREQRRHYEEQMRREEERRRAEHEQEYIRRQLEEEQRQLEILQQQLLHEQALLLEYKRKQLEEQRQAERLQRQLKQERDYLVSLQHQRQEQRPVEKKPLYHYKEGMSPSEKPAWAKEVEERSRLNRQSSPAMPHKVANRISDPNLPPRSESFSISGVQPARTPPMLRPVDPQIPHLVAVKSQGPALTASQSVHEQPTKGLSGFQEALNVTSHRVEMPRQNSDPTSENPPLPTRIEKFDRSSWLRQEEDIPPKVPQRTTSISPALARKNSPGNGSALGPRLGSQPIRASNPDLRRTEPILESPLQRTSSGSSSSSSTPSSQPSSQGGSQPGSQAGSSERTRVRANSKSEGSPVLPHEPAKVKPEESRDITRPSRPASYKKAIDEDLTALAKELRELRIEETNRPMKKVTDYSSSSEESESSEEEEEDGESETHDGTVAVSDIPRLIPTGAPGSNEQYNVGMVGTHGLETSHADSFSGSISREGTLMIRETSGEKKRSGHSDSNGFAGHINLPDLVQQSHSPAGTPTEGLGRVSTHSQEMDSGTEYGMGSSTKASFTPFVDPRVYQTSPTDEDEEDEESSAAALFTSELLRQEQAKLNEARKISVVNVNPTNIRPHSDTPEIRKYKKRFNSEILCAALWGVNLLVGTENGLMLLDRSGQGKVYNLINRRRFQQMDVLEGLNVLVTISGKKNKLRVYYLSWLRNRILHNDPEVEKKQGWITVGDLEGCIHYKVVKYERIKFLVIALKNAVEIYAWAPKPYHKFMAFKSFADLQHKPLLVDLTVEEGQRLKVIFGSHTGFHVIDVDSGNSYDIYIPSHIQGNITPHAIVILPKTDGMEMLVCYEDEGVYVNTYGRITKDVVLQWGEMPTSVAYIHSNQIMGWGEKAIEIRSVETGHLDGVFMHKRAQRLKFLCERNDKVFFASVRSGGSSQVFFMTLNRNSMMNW
YSK4 (human), sequence (Q56UN5 whole entry, looked up): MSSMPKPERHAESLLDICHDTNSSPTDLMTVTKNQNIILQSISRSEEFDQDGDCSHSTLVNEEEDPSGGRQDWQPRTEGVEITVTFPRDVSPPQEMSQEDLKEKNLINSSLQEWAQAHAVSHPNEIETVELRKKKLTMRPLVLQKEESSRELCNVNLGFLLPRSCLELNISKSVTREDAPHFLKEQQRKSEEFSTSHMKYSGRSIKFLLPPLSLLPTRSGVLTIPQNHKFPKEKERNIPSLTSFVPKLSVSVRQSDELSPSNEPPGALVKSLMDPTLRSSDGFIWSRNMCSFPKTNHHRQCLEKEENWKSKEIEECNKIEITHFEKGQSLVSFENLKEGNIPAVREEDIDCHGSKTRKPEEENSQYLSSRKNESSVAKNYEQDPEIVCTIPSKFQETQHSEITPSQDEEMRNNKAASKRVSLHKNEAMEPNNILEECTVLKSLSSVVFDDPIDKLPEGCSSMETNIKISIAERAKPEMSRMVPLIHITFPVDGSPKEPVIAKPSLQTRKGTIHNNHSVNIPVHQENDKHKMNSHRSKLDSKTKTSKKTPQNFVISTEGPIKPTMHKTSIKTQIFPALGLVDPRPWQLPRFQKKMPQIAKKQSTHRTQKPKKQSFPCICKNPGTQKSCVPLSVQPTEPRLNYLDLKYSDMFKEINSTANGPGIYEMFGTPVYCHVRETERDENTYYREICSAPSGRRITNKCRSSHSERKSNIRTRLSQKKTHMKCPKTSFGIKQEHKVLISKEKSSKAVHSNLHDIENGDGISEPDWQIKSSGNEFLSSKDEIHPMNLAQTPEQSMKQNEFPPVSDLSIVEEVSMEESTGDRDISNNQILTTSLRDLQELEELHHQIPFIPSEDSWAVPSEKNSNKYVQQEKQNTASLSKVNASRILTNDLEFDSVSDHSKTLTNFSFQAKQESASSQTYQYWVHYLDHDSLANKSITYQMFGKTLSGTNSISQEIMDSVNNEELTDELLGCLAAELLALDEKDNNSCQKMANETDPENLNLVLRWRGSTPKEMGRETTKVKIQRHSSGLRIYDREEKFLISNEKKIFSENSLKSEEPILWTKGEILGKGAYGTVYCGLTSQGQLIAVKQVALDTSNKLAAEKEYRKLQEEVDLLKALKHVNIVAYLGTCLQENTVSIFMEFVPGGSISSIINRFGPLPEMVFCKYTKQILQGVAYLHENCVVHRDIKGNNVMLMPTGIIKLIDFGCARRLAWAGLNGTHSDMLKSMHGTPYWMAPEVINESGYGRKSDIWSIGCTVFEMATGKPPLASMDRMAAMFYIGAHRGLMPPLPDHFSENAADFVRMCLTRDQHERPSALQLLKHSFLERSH
LATS2 (human), sequence (Q9NRM7 whole entry, looked up): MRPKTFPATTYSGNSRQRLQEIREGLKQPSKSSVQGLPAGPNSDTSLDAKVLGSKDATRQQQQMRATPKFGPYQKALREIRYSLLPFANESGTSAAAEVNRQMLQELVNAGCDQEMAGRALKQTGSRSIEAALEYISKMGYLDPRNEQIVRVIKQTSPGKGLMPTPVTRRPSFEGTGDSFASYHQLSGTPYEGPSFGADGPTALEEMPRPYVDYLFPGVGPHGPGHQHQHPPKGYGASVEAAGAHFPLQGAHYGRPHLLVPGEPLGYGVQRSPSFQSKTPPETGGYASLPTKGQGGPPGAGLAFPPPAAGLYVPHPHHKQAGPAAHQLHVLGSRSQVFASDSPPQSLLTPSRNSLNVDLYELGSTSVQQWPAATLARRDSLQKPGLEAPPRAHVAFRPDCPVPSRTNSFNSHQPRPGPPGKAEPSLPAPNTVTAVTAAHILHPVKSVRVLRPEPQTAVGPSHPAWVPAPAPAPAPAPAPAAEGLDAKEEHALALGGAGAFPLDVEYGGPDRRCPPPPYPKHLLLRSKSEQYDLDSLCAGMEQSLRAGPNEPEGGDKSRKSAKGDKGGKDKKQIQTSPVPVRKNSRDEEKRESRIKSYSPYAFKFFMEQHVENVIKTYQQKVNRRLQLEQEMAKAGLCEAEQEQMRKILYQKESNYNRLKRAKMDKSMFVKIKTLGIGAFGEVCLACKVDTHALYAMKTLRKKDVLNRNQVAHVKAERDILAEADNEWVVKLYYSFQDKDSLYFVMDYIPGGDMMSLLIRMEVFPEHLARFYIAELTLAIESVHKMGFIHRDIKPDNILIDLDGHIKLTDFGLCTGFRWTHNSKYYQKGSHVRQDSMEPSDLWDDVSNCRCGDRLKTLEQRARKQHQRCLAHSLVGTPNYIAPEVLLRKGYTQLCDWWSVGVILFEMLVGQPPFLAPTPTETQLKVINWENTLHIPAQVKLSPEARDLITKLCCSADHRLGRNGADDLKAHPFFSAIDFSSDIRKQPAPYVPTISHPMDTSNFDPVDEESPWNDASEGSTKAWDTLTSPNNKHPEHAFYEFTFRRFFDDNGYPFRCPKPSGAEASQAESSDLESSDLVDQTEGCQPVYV

`Cc1cnc(-c2cnc(NCCNc3ccc(C#N)cn3)nc2-c2ccc(Cl)cc2Cl)[nH]1` showed a kinase still bound, per cent of control (STK32B (human)) of 100%, a kinase still bound, per cent of control (DDR2 (human)) of 100% and a kinase still bound, per cent of control (RPS6KA4 KD1 (human)) of 64%. It also gave a kinase still bound, per cent of control (NEK5 (human)) of 93%, a kinase still bound, per cent of control (TXK (human)) of 100% and a kinase still bound, per cent of control (CDK3 (human)) of 89%. For the same compound, the kinase still bound, per cent of control [1] was 100%, the kinase still bound, per cent of control (MARK1 (human)) was 91% and the kinase still bound, per cent of control (MAP3K1 (human)) was 100%. It also gave a kinase still bound, per cent of control (BMPR2 (human)) of 90%, a kinase still bound, per cent of control (MKNK2 (human)) of 82% and a kinase still bound, per cent of control (ABL1 (human)) of 96%. The kinase still bound, per cent of control (PLK3 (human)) was 80%, the kinase still bound, per cent of control (MAP3K4 (human)) was 100% and the kinase still bound, per cent of control (BLK (human)) was 100%. It also gave a kinase still bound, per cent of control (PKN1 (human)) of 100%, a kinase still bound, per cent of control (EPHA3 (human)) of 100% and a kinase still bound, per cent of control (MINK1 (human)) of 75%. It also gave a kinase still bound, per cent of control (PLK1 (human)) of 5.4%, a kinase still bound, per cent of control [2] of 100% and a kinase still bound, per cent of control (TGFBR1 (human)) of 100%. It also gave a kinase still bound, per cent of control (STK24 (human)) of 97%, a kinase still bound, per cent of control (PDPK1 (human)) of 99% and a kinase still bound, per cent of control (CSF1R (human)) of 90%. The kinase still bound, per cent of control (MST1R (human)) was 100%, the kinase still bound, per cent of control (DAPK1 (human)) was 84% and the kinase still bound, per cent of control [3] was 100%. For the same compound, the kinase still bound, per cent of control (PRKCH (human)) was 100%, the kinase still bound, per cent of control (LCK (human)) was 100% and the kinase still bound, per cent of control [4] was 100%. The kinase still bound, per cent of control (YSK4 (human)) was 30%, the kinase still bound, per cent of control (TTK (human)) was 86% and the kinase still bound, per cent of control [5] was 46%. It also gave a kinase still bound, per cent of control (BRSK2 (human)) of 97%, a kinase still bound, per cent of control (LATS2 (human)) of 100% and a kinase still bound, per cent of control (ACVR2B (human)) of 100%. It also gave a kinase still bound, per cent of control (SGK110 (human)) of 100%, a kinase still bound, per cent of control (CDK18 (human)) of 100% and a kinase still bound, per cent of control (BMP2K (human)) of 99%. For the same compound, the kinase still bound, per cent of control (RIPK4 (human)) was 100% and the kinase still bound, per cent of control (TNIK (human)) was 96%.

`COc1ccc(CNC(=O)Nc2ncc([N+](=O)[O-])s2)cc1` showed a kinase still bound, per cent of control (STK32B (human)) of 100%, a kinase still bound, per cent of control (DDR2 (human)) of 71% and a kinase still bound, per cent of control (RPS6KA4 KD1 (human)) of 98%. The kinase still bound, per cent of control (NEK5 (human)) was 100%, the kinase still bound, per cent of control (TXK (human)) was 100% and the kinase still bound, per cent of control (CDK3 (human)) was 68%. The kinase still bound, per cent of control [1] was 96%, the kinase still bound, per cent of control (MARK1 (human)) was 100% and the kinase still bound, per cent of control (MAP3K1 (human)) was 100%. The kinase still bound, per cent of control (BMPR2 (human)) was 100%, the kinase still bound, per cent of control (MAP4K4 (human)) was 92% and the kinase still bound, per cent of control (MKNK2 (human)) was 100%. It also gave a kinase still bound, per cent of control (ABL1 (human)) of 100%, a kinase still bound, per cent of control (PLK3 (human)) of 100% and a kinase still bound, per cent of control (MAP3K4 (human)) of 100%. For the same compound, the kinase still bound, per cent of control (PKN1 (human)) was 100%, the kinase still bound, per cent of control (EPHA3 (human)) was 100% and the kinase still bound, per cent of control (MINK1 (human)) was 86%. It also gave a kinase still bound, per cent of control (PLK1 (human)) of 100%, a kinase still bound, per cent of control [2] of 100% and a kinase still bound, per cent of control (TGFBR1 (human)) of 82%. For the same compound, the kinase still bound, per cent of control (STK24 (human)) was 84%, the kinase still bound, per cent of control (PDPK1 (human)) was 78% and the kinase still bound, per cent of control (CSF1R (human)) was 97%. For the same compound, the kinase still bound, per cent of control (MST1R (human)) was 100%, the kinase still bound, per cent of control (DAPK1 (human)) was 99% and the kinase still bound, per cent of control [3] was 100%. For the same compound, the kinase still bound, per cent of control (PRKCH (human)) was 100%, the kinase still bound, per cent of control (LCK (human)) was 100% and the kinase still bound, per cent of control [4] was 100%. It also gave a kinase still bound, per cent of control (YSK4 (human)) of 49%, a kinase still bound, per cent of control (TTK (human)) of 100% and a kinase still bound, per cent of control [5] of 86%. For the same compound, the kinase still bound, per cent of control (BRSK2 (human)) was 100%, the kinase still bound, per cent of control (LATS2 (human)) was 100% and the kinase still bound, per cent of control (ACVR2B (human)) was 100%. For the same compound, the kinase still bound, per cent of control (SGK110 (human)) was 83%, the kinase still bound, per cent of control (CDK18 (human)) was 89% and the kinase still bound, per cent of control (BMP2K (human)) was 100%. For the same compound, the kinase still bound, per cent of control (RIPK4 (human)) was 100% and the kinase still bound, per cent of control (TNIK (human)) was 100%.
